# According to the NIST ThermoML archive (doi:10.1021/acs.jced.7b00265):
# ± gives the expanded uncertainty stated by the source.
# Test: molar heat capacity at constant pressure; mn = molality of the nth substance listed, in mol/kg
# Settings: 100 kPa, Liquid, DSC
smiles,measurement,setting,value
O=S(=O)([O-])[O-].[Mg+2] [magnesium sulfate] + O,molar heat capacity at constant pressure,"248.15 K, m1 = 2.012",67.27 ± 2.7 J/K/mol
same,molar heat capacity at constant pressure,"248.15 K, m1 = 2.495",67.05 ± 2.6 J/K/mol
same,molar heat capacity at constant pressure,"248.15 K, m1 = 2.775",67.13 ± 2.6 J/K/mol
same,molar heat capacity at constant pressure,"253.15 K, m1 = 1.502",68.74 ± 2.7 J/K/mol
same,molar heat capacity at constant pressure,"253.15 K, m1 = 2.012",67.94 ± 2.7 J/K/mol
same,molar heat capacity at constant pressure,"253.15 K, m1 = 2.495",67.75 ± 2.6 J/K/mol
same,molar heat capacity at constant pressure,"253.15 K, m1 = 2.775",67.86 ± 2.6 J/K/mol
same,molar heat capacity at constant pressure,"258.15 K, m1 = 0.526",72.91 ± 2.8 J/K/mol
same,molar heat capacity at constant pressure,"258.15 K, m1 = 1.502",69.24 ± 2.7 J/K/mol
same,molar heat capacity at constant pressure,"258.15 K, m1 = 2.012",68.52 ± 2.7 J/K/mol
same,molar heat capacity at constant pressure,"258.15 K, m1 = 2.495",68.37 ± 2.6 J/K/mol
same,molar heat capacity at constant pressure,"258.15 K, m1 = 2.775",68.51 ± 2.7 J/K/mol
same,molar heat capacity at constant pressure,"263.15 K, m1 = 0.0546",76.21 ± 3 J/K/mol
same,molar heat capacity at constant pressure,"263.15 K, m1 = 0.526",72.94 ± 2.8 J/K/mol
same,molar heat capacity at constant pressure,"263.15 K, m1 = 1.001",70.95 ± 2.8 J/K/mol
same,molar heat capacity at constant pressure,"263.15 K, m1 = 1.502",69.74 ± 2.7 J/K/mol
same,molar heat capacity at constant pressure,"263.15 K, m1 = 2.012",69.11 ± 2.7 J/K/mol
same,molar heat capacity at constant pressure,"263.15 K, m1 = 2.495",68.98 ± 2.7 J/K/mol
same,molar heat capacity at constant pressure,"263.15 K, m1 = 2.775",69.12 ± 2.7 J/K/mol
same,molar heat capacity at constant pressure,"268.15 K, m1 = 0.0546",75.8 ± 2.9 J/K/mol
same,molar heat capacity at constant pressure,"268.15 K, m1 = 0.1089",75.41 ± 2.9 J/K/mol
same,molar heat capacity at constant pressure,"268.15 K, m1 = 0.213",74.68 ± 2.9 J/K/mol
same,molar heat capacity at constant pressure,"268.15 K, m1 = 0.526",73 ± 2.8 J/K/mol
same,molar heat capacity at constant pressure,"268.15 K, m1 = 1.001",71.26 ± 2.8 J/K/mol
same,molar heat capacity at constant pressure,"268.15 K, m1 = 1.502",70.17 ± 2.7 J/K/mol
same,molar heat capacity at constant pressure,"268.15 K, m1 = 2.012",69.62 ± 2.8 J/K/mol
same,molar heat capacity at constant pressure,"268.15 K, m1 = 2.495",69.54 ± 2.7 J/K/mol
same,molar heat capacity at constant pressure,"268.15 K, m1 = 2.775",69.7 ± 2.7 J/K/mol
same,molar heat capacity at constant pressure,"273.15 K, m1 = 0.0546",75.56 ± 2.9 J/K/mol
same,molar heat capacity at constant pressure,"273.15 K, m1 = 0.1089",75.23 ± 2.9 J/K/mol
same,molar heat capacity at constant pressure,"273.15 K, m1 = 0.213",74.58 ± 2.9 J/K/mol
same,molar heat capacity at constant pressure,"273.15 K, m1 = 0.526",73.08 ± 2.8 J/K/mol
same,molar heat capacity at constant pressure,"273.15 K, m1 = 1.001",71.54 ± 2.8 J/K/mol
same,molar heat capacity at constant pressure,"273.15 K, m1 = 1.502",70.59 ± 2.7 J/K/mol
same,molar heat capacity at constant pressure,"273.15 K, m1 = 2.012",70.1 ± 2.7 J/K/mol
same,molar heat capacity at constant pressure,"273.15 K, m1 = 2.495",70.03 ± 2.7 J/K/mol
same,molar heat capacity at constant pressure,"273.15 K, m1 = 2.775",70.24 ± 2.7 J/K/mol
same,molar heat capacity at constant pressure,"278.15 K, m1 = 0.0546",75.36 ± 2.9 J/K/mol
same,molar heat capacity at constant pressure,"278.15 K, m1 = 0.1089",75.07 ± 2.9 J/K/mol
same,molar heat capacity at constant pressure,"278.15 K, m1 = 0.213",74.49 ± 2.9 J/K/mol
same,molar heat capacity at constant pressure,"278.15 K, m1 = 0.526",73.15 ± 2.8 J/K/mol
same,molar heat capacity at constant pressure,"278.15 K, m1 = 1.001",71.78 ± 2.8 J/K/mol
same,molar heat capacity at constant pressure,"278.15 K, m1 = 1.502",70.94 ± 2.8 J/K/mol
same,molar heat capacity at constant pressure,"278.15 K, m1 = 2.012",70.49 ± 2.7 J/K/mol
same,molar heat capacity at constant pressure,"278.15 K, m1 = 2.495",70.46 ± 2.7 J/K/mol
same,molar heat capacity at constant pressure,"278.15 K, m1 = 2.775",70.7 ± 2.7 J/K/mol
same,molar heat capacity at constant pressure,"283.15 K, m1 = 0.0546",75.24 ± 2.9 J/K/mol
same,molar heat capacity at constant pressure,"283.15 K, m1 = 0.1089",74.96 ± 2.9 J/K/mol
same,molar heat capacity at constant pressure,"283.15 K, m1 = 0.213",74.44 ± 2.9 J/K/mol
same,molar heat capacity at constant pressure,"283.15 K, m1 = 0.526",73.23 ± 2.8 J/K/mol
same,molar heat capacity at constant pressure,"283.15 K, m1 = 1.001",71.98 ± 2.8 J/K/mol
same,molar heat capacity at constant pressure,"283.15 K, m1 = 1.502",71.23 ± 2.8 J/K/mol
same,molar heat capacity at constant pressure,"283.15 K, m1 = 2.012",70.88 ± 2.7 J/K/mol
same,molar heat capacity at constant pressure,"283.15 K, m1 = 2.495",70.89 ± 2.8 J/K/mol
same,molar heat capacity at constant pressure,"283.15 K, m1 = 2.775",71.11 ± 2.7 J/K/mol
same,molar heat capacity at constant pressure,"288.15 K, m1 = 0.0546",75.16 ± 2.9 J/K/mol
same,molar heat capacity at constant pressure,"288.15 K, m1 = 0.1089",74.9 ± 2.9 J/K/mol
same,molar heat capacity at constant pressure,"288.15 K, m1 = 0.213",74.44 ± 2.9 J/K/mol
same,molar heat capacity at constant pressure,"288.15 K, m1 = 0.526",73.34 ± 2.8 J/K/mol
same,molar heat capacity at constant pressure,"288.15 K, m1 = 1.001",72.23 ± 2.8 J/K/mol
same,molar heat capacity at constant pressure,"288.15 K, m1 = 1.502",71.56 ± 2.8 J/K/mol
same,molar heat capacity at constant pressure,"288.15 K, m1 = 2.012",71.27 ± 2.8 J/K/mol
same,molar heat capacity at constant pressure,"288.15 K, m1 = 2.495",71.27 ± 2.8 J/K/mol
same,molar heat capacity at constant pressure,"288.15 K, m1 = 2.775",71.57 ± 2.8 J/K/mol
same,molar heat capacity at constant pressure,"293.15 K, m1 = 0.0546",75.09 ± 2.9 J/K/mol
same,molar heat capacity at constant pressure,"293.15 K, m1 = 0.1089",74.85 ± 2.9 J/K/mol
same,molar heat capacity at constant pressure,"293.15 K, m1 = 0.213",74.42 ± 2.9 J/K/mol
same,molar heat capacity at constant pressure,"293.15 K, m1 = 0.526",73.44 ± 2.8 J/K/mol
same,molar heat capacity at constant pressure,"293.15 K, m1 = 1.001",72.41 ± 2.8 J/K/mol
same,molar heat capacity at constant pressure,"293.15 K, m1 = 1.502",71.83 ± 2.8 J/K/mol
same,molar heat capacity at constant pressure,"293.15 K, m1 = 2.012",71.57 ± 2.8 J/K/mol
same,molar heat capacity at constant pressure,"293.15 K, m1 = 2.495",71.63 ± 2.8 J/K/mol
same,molar heat capacity at constant pressure,"293.15 K, m1 = 2.775",71.94 ± 2.8 J/K/mol
same,molar heat capacity at constant pressure,"298.15 K, m1 = 0.0546",75.05 ± 2.9 J/K/mol
same,molar heat capacity at constant pressure,"298.15 K, m1 = 0.1089",74.83 ± 2.9 J/K/mol
same,molar heat capacity at constant pressure,"298.15 K, m1 = 0.213",74.44 ± 2.9 J/K/mol
same,molar heat capacity at constant pressure,"298.15 K, m1 = 0.526",73.55 ± 2.8 J/K/mol
same,molar heat capacity at constant pressure,"298.15 K, m1 = 1.001",72.65 ± 2.8 J/K/mol
same,molar heat capacity at constant pressure,"298.15 K, m1 = 1.502",72.12 ± 2.8 J/K/mol
same,molar heat capacity at constant pressure,"298.15 K, m1 = 2.012",71.91 ± 2.8 J/K/mol
same,molar heat capacity at constant pressure,"298.15 K, m1 = 2.495",72.01 ± 2.8 J/K/mol
same,molar heat capacity at constant pressure,"298.15 K, m1 = 2.775",72.35 ± 2.8 J/K/mol
